Measured values from PMC7176092, “Development of the first in vivo GPR17 ligand through an iterative drug discovery pipeline: A novel disease-modifying strategy for multiple sclerosis” (PLoS ONE, 2020).
Values joined by “and” are separate entries in the source; they are usually repeats but may differ in a detail not shown here. Equal entries are not always repeated. Where two headings read alike, the source gives them in different places.

Assays:
[1] = target: T1, M1 (Homo sapiens, UniProt P11229); assay: Binding assay M1; settings: 100 nM
T1 construct: Eurofins Cerep (external service)
T1 sequence (P11229 1-460): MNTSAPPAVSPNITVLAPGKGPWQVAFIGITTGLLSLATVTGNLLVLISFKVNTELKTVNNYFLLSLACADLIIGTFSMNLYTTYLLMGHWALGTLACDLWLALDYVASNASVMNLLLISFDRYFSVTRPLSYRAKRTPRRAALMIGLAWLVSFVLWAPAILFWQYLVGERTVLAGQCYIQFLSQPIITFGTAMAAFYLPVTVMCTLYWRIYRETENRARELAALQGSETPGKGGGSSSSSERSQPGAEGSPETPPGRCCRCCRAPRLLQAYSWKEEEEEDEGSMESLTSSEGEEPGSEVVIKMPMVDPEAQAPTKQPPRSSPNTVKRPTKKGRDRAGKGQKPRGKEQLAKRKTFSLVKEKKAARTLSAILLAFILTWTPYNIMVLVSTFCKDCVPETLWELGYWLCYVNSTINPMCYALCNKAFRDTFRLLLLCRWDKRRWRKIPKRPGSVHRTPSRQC

[2] = target: T2, ADR1A (Homo sapiens, UniProt P35348); assay: Binding assay ADR1A; settings: 100 nM
T2 construct: Eurofins Cerep (external service)
T2 sequence (P35348 1-466): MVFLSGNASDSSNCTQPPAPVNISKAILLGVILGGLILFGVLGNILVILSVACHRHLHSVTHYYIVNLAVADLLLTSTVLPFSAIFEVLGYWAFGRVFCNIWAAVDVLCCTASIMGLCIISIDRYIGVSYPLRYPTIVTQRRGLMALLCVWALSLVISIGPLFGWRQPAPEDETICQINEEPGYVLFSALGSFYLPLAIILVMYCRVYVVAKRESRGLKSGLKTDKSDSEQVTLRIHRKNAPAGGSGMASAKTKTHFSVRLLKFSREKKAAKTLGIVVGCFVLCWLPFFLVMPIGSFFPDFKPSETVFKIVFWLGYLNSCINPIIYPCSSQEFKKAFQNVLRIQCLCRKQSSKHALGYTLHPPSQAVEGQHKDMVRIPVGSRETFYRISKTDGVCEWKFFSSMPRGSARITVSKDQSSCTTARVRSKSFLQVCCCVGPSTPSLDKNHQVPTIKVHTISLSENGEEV

[3] = target: T3, mGluR1 (Homo sapiens, UniProt Q13255); assay: Binding assay mGluR1; settings: 100 nM
T3 construct: Eurofins Cerep (external service)
T3 sequence (Q13255 19-1194): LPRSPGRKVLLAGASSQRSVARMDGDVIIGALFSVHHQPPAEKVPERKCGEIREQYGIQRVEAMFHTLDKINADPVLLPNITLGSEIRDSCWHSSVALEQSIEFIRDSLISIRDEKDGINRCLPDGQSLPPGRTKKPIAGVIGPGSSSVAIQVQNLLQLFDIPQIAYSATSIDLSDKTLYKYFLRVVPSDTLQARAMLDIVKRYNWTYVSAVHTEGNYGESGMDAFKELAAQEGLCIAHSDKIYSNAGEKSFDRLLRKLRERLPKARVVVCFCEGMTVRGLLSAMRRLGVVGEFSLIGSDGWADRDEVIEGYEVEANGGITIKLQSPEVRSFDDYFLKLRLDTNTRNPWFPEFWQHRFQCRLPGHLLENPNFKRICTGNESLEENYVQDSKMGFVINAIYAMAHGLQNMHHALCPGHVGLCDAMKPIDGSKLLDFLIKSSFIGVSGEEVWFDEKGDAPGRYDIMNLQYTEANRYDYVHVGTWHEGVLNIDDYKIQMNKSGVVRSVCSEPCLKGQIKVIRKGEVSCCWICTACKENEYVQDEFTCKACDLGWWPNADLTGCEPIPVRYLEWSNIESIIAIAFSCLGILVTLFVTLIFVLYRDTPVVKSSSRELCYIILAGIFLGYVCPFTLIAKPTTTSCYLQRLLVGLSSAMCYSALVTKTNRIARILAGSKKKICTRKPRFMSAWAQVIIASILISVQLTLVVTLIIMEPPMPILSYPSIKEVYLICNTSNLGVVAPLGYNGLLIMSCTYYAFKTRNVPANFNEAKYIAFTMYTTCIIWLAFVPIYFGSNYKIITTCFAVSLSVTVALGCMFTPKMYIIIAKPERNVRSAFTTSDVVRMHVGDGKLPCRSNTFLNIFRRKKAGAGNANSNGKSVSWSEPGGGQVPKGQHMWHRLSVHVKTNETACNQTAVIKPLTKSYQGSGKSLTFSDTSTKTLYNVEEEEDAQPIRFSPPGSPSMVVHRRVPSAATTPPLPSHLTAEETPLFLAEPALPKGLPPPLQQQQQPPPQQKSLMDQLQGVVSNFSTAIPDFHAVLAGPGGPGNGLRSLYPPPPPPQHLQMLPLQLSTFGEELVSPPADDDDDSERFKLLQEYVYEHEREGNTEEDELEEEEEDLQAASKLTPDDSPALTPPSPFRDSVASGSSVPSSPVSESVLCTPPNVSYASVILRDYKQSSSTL

[4] = target: CXCR6 (Homo sapiens, UniProt O00574); assay: Cellular functional assay CXCR6
CXCR6, sequence (O00574 whole entry): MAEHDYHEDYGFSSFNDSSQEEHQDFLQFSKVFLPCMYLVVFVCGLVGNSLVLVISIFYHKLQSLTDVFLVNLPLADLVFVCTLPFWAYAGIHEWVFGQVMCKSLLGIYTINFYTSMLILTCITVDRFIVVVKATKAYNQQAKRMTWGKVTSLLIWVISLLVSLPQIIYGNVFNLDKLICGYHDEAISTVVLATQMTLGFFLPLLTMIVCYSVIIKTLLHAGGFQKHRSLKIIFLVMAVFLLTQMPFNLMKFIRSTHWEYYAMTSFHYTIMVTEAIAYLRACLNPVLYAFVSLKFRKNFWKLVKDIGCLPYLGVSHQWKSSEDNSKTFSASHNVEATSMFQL

[5] = target: T4, M4 (Homo sapiens, UniProt P08173); assay: Binding assay M4; settings: 100 nM
T4 construct: Eurofins Cerep (external service)
T4 sequence (P08173 1-479): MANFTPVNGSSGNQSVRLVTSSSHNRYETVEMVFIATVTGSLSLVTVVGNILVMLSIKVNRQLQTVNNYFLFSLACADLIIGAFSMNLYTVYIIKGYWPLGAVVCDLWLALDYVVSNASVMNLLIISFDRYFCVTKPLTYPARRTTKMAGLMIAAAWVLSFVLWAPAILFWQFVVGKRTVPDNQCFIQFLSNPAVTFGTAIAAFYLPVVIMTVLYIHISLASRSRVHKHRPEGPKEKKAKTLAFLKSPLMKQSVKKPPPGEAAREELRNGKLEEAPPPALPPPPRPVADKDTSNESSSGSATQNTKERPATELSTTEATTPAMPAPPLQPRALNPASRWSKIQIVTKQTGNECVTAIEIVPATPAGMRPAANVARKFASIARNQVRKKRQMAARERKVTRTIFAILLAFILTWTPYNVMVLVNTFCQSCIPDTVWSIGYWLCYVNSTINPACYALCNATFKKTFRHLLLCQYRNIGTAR

[6] = target: T5, mGluR5 (Homo sapiens, UniProt P41594); assay: Binding assay mGluR5; settings: 100 nM
T5 construct: Eurofins Cerep (external service)
T5 sequence (P41594 21-1212): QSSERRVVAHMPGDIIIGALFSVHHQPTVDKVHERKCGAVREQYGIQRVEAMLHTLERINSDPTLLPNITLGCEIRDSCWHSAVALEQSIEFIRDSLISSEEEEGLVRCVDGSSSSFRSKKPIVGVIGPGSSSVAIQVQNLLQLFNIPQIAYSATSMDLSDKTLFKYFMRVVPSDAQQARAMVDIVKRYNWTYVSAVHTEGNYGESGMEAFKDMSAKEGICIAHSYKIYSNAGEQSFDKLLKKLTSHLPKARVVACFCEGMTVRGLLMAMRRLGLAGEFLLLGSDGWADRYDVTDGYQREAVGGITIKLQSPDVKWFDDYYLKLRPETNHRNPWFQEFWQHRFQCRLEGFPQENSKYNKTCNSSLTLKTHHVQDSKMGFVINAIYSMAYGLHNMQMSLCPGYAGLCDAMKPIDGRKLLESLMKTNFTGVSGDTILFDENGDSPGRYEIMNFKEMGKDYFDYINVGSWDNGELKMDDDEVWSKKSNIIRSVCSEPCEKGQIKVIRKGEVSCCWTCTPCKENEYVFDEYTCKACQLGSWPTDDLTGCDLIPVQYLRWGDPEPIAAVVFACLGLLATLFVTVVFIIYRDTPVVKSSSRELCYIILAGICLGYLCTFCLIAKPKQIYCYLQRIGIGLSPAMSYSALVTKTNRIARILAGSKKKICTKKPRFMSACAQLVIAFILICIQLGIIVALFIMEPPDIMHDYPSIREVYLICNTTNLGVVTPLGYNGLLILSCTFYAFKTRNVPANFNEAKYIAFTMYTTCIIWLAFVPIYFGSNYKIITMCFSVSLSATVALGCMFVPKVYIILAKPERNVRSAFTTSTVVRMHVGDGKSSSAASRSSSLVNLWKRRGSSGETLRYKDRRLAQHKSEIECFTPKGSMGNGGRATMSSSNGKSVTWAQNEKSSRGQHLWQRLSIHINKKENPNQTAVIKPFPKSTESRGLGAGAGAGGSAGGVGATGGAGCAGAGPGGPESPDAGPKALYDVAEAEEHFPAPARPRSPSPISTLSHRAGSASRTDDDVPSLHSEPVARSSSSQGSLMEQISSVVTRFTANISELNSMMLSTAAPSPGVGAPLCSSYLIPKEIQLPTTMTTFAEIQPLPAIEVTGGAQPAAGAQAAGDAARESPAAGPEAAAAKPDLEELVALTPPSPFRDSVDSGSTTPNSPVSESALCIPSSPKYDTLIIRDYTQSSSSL

[7] = target: T6, ADR2A (Homo sapiens, UniProt P08913); assay: Binding assay ADR2A; settings: 100 nM
T6 construct: Eurofins Cerep (external service)
T6 sequence (P08913 1-465): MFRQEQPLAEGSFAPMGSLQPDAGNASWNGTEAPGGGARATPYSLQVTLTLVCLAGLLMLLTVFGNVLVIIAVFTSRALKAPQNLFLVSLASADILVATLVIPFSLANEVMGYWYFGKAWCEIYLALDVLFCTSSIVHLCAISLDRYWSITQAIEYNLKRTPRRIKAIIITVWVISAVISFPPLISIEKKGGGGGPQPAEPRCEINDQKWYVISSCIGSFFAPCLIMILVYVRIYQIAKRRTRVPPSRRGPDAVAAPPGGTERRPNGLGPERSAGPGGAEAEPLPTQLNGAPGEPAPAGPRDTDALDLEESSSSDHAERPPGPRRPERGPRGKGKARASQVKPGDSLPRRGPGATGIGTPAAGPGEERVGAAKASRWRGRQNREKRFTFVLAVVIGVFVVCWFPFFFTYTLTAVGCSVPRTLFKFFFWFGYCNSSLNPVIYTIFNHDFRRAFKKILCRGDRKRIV

[8] = target: CCR8 (Homo sapiens, UniProt P51685); assay: Cellular functional assay CCR8
CCR8, sequence (P51685 whole entry): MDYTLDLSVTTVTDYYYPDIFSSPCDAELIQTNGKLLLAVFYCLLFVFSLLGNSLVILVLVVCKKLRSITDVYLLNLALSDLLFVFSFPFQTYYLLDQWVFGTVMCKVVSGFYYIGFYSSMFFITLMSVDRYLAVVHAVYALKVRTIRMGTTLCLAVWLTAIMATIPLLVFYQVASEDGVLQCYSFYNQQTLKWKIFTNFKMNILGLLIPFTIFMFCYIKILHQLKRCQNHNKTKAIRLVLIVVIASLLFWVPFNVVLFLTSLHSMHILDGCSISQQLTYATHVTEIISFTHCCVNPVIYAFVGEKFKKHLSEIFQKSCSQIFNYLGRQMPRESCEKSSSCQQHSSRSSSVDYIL

[9] = mean of 2, read-out: % Of control specific binding, Mean
[10] = read-out: % Inhibition of control specific binding
[11] = single replicates 1 and 2, 0.1 µM
[12] = single replicates 1 and 2, read-out: % Of control specific binding
[13] = antagonist effect, 100 nM, single replicates 1st and 2nd, 0.1 µM
[14] = read-out: % Inhibition of control agonist response
[15] = read-out: Agonist Response (% of Control), Mean, antagonist effect, 100 nM, mean of 2

remaining activity at 0.1 µM [1, 9]: 108% | inhibition at 0.1 µM [1, 10]: -8% | % Of control specific binding [1, 11]: 110.2% | remaining activity at 0.1 µM [1, 12]: 105% | remaining activity at 0.1 µM [2, 9]: 112% | % Of control specific binding [2, 11]: 108.1% | remaining activity at 0.1 µM [2, 12]: 117% | remaining activity at 0.1 µM [3, 9]: 114% | inhibition at 0.1 µM [3, 10]: -14% | % Of control specific binding [3, 11]: 103.5% and 124.2% | Agonist Response (% of Control) [4, 13]: 103.1% | inhibition at 0.1 µM [4, 14]: -0.7% | activity at 0.1 µM [4, 15]: 104% | activity at 0.1 µM ([4]; read-out: Agonist Response (% of Control), antagonist effect, 100 nM, single replicates 1st and 2nd): 105% | remaining activity at 0.1 µM [5, 9]: 95.4% | inhibition at 0.1 µM [5, 10]: 5% | % Of control specific binding [5, 11]: 95.1% | remaining activity at 0.1 µM [5, 12]: 95.7% | remaining activity at 0.1 µM [6, 9]: 104% | inhibition at 0.1 µM [6, 10]: -4% | % Of control specific binding [6, 11]: 106.8% | remaining activity at 0.1 µM [6, 12]: 102% | remaining activity at 0.1 µM [7, 9]: 99.9% | inhibition at 0.1 µM [7, 10]: 0% | % Of control specific binding [7, 11]: 99.5% | remaining activity at 0.1 µM [7, 12]: 100% | Agonist Response (% of Control) [8, 13]: 116.9% and 80.2% | inhibition at 0.1 µM [8, 14]: 2% | activity at 0.1 µM [8, 15]: 98.5%
Structure (SMILES): Cc1ccc(-c2nnc(SCC(=O)Nc3nccs3)[nH]2)cc1 [Compound 9]
